Measured values as given in US6387905B2, “Compounds useful for inhibition of farnesyl protein transferase” (Schering Corporation, priority 1996, dated 2002).
“And” between values parts separate entries of the source, which are not always exact repeats. Equal entries are not always repeated. Where two headings read alike, the source gives them in different places.

Key:
[1] = biological target: farnesyl protein transferase (FPT), H-ras (Homo sapiens, UniProt P49354+P49356); test: FPT IC50 (H-ras), inhibition of farnesyl protein transferase, in vitro enzyme assay; assay type: biochemical
Method: (§1) FPT IC50 (inhibition of farnesyl protein transferase, in vitro enzyme assay) and COS Cell IC50 (Cell-Based Assay) were determined following the assay procedures described in WO 95/10516, published Apr. 20, 1995. GGPT IC50 (inhibition of geranylgeranyl protein transferase, in vitro enzyme assay), Cell Mat Assay, and anti-tumor activity (in vivo anti-tumor studies) could be determined by the assay procedures described in WO 95/10516. The disclosure of WO 95/10516 is incorporated herein by reference thereto.

COS Cell = COS Cell IC50 (Cell-Based Assay)
Method: as §1

Human tumor cells = test: Soft Agar Assay (anchorage-independent growth); assay type: cell-based
Method: Anchorage-independent growth is a characteristic of tumorgenic cell lines. Human tumor cells are suspended in growth medium containing 0.3% agarose and an indicated concentration of a farnesyl transferase inhibitor. The solution is overlayed onto growth medium solidified with 0.6% agarose containing the same concentration of farnesyl transferase inhibitor as the top layer. After the top layer is solidified, plates are incubated for 10-16 days at 37° C. under 5% CO2 to allow colony outgrowth. After incubation, the colonies are stained by overlaying the agar with a solution of MTT (3-[4,5-dimethyl-thiazol-2-yl]-2,5-diphenyltetrazolium bromide, Thiazolyl blue) (1 mg/mL in PBS). Colonies can be counted and the IC50's can be determined.

[2] = biological target: farnesyl protein transferase (FPT), K-ras (Homo sapiens, UniProt P49354+P49356); test: FPT IC50 (K-ras), inhibition of farnesyl protein transferase, in vitro enzyme assay; assay type: biochemical
Method: as §1

[3] = COS, Table 5, read-out: Cos Cell IC50
[4] = Homo sapiens, Table 5, read-out: Soft Agar IC50
[5] = COS, read-out: Cos Cell IC50, Table 5
[6] = Homo sapiens, read-out: Soft Agar IC50, Table 5

| Structure (SMILES) | IC50 ([1]; Table 4, read-out: FPT IC50) | IC50 (COS Cell; [3]) | IC50 (Human tumor cells; [4]) | also measured |
| --- | --- | --- | --- | --- |
| O=C(O)c1cccn1CC(=O)N1CCC(CC(=O)N2CCC([C@H]3c4ncc(Br)cc4CCc4cc(Cl)cc(Br)c43)CC2)CC1 [Cmpd 52.0-B] | 1.3 nM | 400 nM | 500 nM | – |
| CCOC(=O)c1ncn(CC(=O)N2CCC(CC(=O)N3CCC([C@H]4c5ncc(Br)cc5CCc5cc(Cl)cc(Br)c54)CC3)CC2)c1C [Cmpd 54.0-B] | 3.9 nM | 100 nM | > 500 nM | – |
| O=C(OCc1ccccc1)c1cccn1CC(=O)N1CCC(CC(=O)N2CCC([C@H]3c4ncc(Br)cc4CCc4cc(Cl)cc(Br)c43)CC2)CC1 [Cmpd 55.0-B] | 9.2 nM | 200 nM | > 500 nM | – |
| COC(=O)Cc1cn(CC(=O)N2CCC(CC(=O)N3CCC([C@H]4c5ncc(Br)cc5CCc5cc(Cl)cc(Br)c54)CC3)CC2)cn1 [Cmpd 56.0-B] | 3.3 nM | 50 nM | > 500 nM | – |
| O=C(CC1CCN(C(=O)Cn2cncn2)CC1)N1CCC([C@H]2c3ncc(Br)cc3CCc3cc(Cl)cc(Br)c32)CC1 [Cmpd 57.0-B] | 1.8 nM | < 10 nM | 110 nM | – |
| O=C(O)NC(=O)C(=O)N1CCC(CC(=O)N2CCC([C@H]3c4ncc(Br)cc4CCc4cc(Cl)cc(Br)c43)CC2)CC1 [Cmpd 59.0-B] | 4 nM | 50 nM | 500 nM | – |
| O=C(NOCc1ccccc1)C(=O)N1CCC(CC(=O)N2CCC([C@H]3c4ncc(Br)cc4CCc4cc(Cl)cc(Br)c43)CC2)CC1 [Cmpd 60.0-B] | 5.4 nM | 120 nM | 500 nM | – |
| O=C(CC1CCN(C(=O)C2CC(O)CN2)CC1)N1CCC([C@H]2c3ncc(Br)cc3CCc3cc(Cl)cc(Br)c32)CC1 (stereo partly shown) [Cmpd 63.0-B] | 3.5 nM | 55 nM | 500 nM | – |
| NC(=O)CCC(=O)N1CCC(CC(=O)N2CCC([C@H]3c4ncc(Br)cc4CCc4cc(Cl)cc(Br)c43)CC2)CC1 [Cmpd 69.0-B] | 2.5 nM | 25 nM | 190 nM | – |
| NC(=O)CCCCCC(=O)N1CCC(CC(=O)N2CCC([C@H]3c4ncc(Br)cc4CCc4cc(Cl)cc(Br)c43)CC2)CC1 [Cmpd 71.0-B] | 3.3 nM | 19 nM | 240 nM | – |
| CC(=O)C(=O)N1CCC(CC(=O)N2CCC([C@H]3c4ncc(Br)cc4CCc4cc(Cl)cc(Br)c43)CC2)CC1 [Cmpd 72.0-B] | 5.4 nM | 10 nM | 320 nM | – |
| O=C(CC1CCN(C(=O)CN2CCCCC2)CC1)N1CCC([C@H]2c3ncc(Br)cc3CCc3cc(Cl)cc(Br)c32)CC1 [Cmpd 75.0-B] | 4.7 nM | 10 nM | 150 nM | – |
| O=C1NC(=O)C(CC(=O)N2CCC(CC(=O)N3CCC([C@H]4c5ncc(Br)cc5CCc5cc(Cl)cc(Br)c54)CC3)CC2)N1 (stereo partly shown) [Cmpd 77.0-B] | 3.2 nM | 14 nM | 240 nM | IC50 (Human tumor cells; Table 5, read-out: Soft Agar IC50): 214 nM |
| O=C(CC1CCN(C(=O)CN2C(=O)CSC2=O)CC1)N1CCC([C@H]2c3ncc(Br)cc3CCc3cc(Cl)cc(Br)c32)CC1 [Cmpd 79.0-B] | 4.4 nM | 150 nM | > 500 nM | – |
| O=C(C(=O)N1CCC(CC(=O)N2CCC([C@H]3c4ncc(Br)cc4CCc4cc(Cl)cc(Br)c43)CC2)CC1)c1cccs1 [Cmpd 81.0-B] | 9.3 nM | 28 nM | > 500 nM | – |
| O=C(Cc1cccs1)N1CCC(CC(=O)N2CCC([C@H]3c4ncc(Br)cc4CCc4cc(Cl)cc(Br)c43)CC2)CC1 [Cmpd 82.0-B] | 7.1 nM | < 10 nM | > 500 nM | – |
| O=C(CC1CCOCC1)N1CCC(CC(=O)N2CCC([C@H]3c4ncc(Br)cc4CCc4cc(Cl)cc(Br)c43)CC2)CC1 [Cmpd 85.0-B] | 5 nM | 14 nM | 333 nM | – |
| NCCC(=O)N1CCC(CC(=O)N2CCC([C@H]3c4ncc(Br)cc4CCc4cc(Cl)cc(Br)c43)CC2)CC1 [Cmpd 88.0-B] | 2.2 nM | 23 nM | > 500 nM | – |

| Structure (SMILES) | IC50 ([1]; Table 4, read-out: FPT IC50) | IC50 (COS Cell; [3]) | IC50 (Human tumor cells; [4]) | also measured |
| --- | --- | --- | --- | --- |
| NC(=O)CC(O)CC(=O)N1CCC(CC(=O)N2CCC([C@H]3c4ncc(Br)cc4CCc4cc(Cl)cc(Br)c43)CC2)CC1 (stereo partly shown) [Cmpd 92.0-B] | 2.2 nM | 15 nM | 45 nM | – |
| O=C(CO/N=C/c1ccccc1O)N1CCC(CC(=O)N2CCC([C@H]3c4ncc(Br)cc4CCc4cc(Cl)cc(Br)c43)CC2)CC1 [Cmpd 95.0-B] | 8.3 nM | 11 nM | > 500 nM | – |
| NC(=O)CCCC(=O)N1CCC(CC(=O)N2CCC([C@H]3c4ncc(Br)cc4CCc4cc(Cl)cc(Br)c43)CC2)CC1 [Cmpd 114.0-B] | 3.9 nM | 35 nM | 395 nM | – |
| O=C(CC1CCN(C(=O)CC2COCCO2)CC1)N1CCC([C@H]2c3ncc(Br)cc3CCc3cc(Cl)cc(Br)c32)CC1 (stereo partly shown) [Cmpd 114.2-B] | 3.9 nM | 10 nM | 75 nM | – |
| O=C(CC1CCN(C(=O)CC2CCCCO2)CC1)N1CCC([C@H]2c3ncc(Br)cc3CCc3cc(Cl)cc(Br)c32)CC1 (stereo partly shown) [Cmpd 114.3-B] | 7.2 nM | 11 nM | 432 nM | – |
| O=C(CC1CCN(C(=O)CC2CCCO2)CC1)N1CCC([C@H]2c3ncc(Br)cc3CCc3cc(Cl)cc(Br)c32)CC1 (stereo partly shown) [Cmpd 114.4-B] | 7.8 nM | 10 nM | 363 nM | – |
| O=C(CC1CCN(C(=O)CN2CCS(=O)(=O)CC2)CC1)N1CCC([C@H]2c3ncc(Br)cc3CCc3cc(Cl)cc(Br)c32)CC1 [Example 6.0-B] | – | – | – | IC50 [2]: 14.5 nM |
| O=C(CCN1CCCCC1)N1CCC(CC(=O)N2CCC([C@H]3c4ncc(Br)cc4CCc4cc(Cl)cc(Br)c43)CC2)CC1 [Example 7.0-B] | – | – | – | IC50 [2]: 15.4 nM |
| O=C(O)CC(=O)N1CCC(CC(=O)N2CCC([C@H]3c4ncc(Br)cc4CCc4cc(Cl)cc(Br)c43)CC2)CC1 [Example 14.0-B] | 0.9 nM and 1.9 nM | – | – | IC50 (COS Cell; [5]): 250 nM; IC50 (COS Cell; read-out: Cos Cell IC50, Table 5): 200 nM; IC50 (Human tumor cells; [6]): > 500 nM |
| CCOC(=O)CC(CC(=O)N1CCC(CC(=O)N2CCC(C3c4ncc(Br)cc4CCc4cc(Cl)cc(Br)c43)CC2)CC1)OC(C)=O (stereo not shown) [Example 16.0-B] | 5.3 nM | 16 nM | 90 nM | – |
| CC(C)(C)OC(=O)N1CC(O)CC1C(=O)N1CCC(CC(=O)N2CCC(C3c4ncc(Br)cc4CCc4cc(Cl)cc(Br)c43)CC2)CC1 (stereo not shown) [Example 24.0-B] | 0.7 nM | 100 nM | > 500 nM | – |
| O=C(O)CC(O)CC(=O)N1CCC(CC(=O)N2CCC([C@H]3c4ncc(Br)cc4CCc4cc(Cl)cc(Br)c43)CC2)CC1 (stereo partly shown) [Example 74.0-B] | 1.7 nM | 40 nM | 500 nM | – |
| O=C(O)CCC(=O)N1CCC(CC(=O)N2CCC([C@H]3c4ncc(Br)cc4CCc4cc(Cl)cc(Br)c43)CC2)CC1 [Example 78] | 1.2 nM | – | – | IC50 (COS Cell; [5]): 75 nM; IC50 (Human tumor cells; [6]): > 500 nM |
| O=C(O)CCCCCC(=O)N1CCC(CC(=O)N2CCC([C@H]3c4ncc(Br)cc4CCc4cc(Cl)cc(Br)c43)CC2)CC1 [Example 80] | 1.4 nM | – | – | IC50 (COS Cell; [5]): 25 nM; IC50 (Human tumor cells; [6]): 250 nM |
| O=C(O)CCCCC(=O)N1CCC(CC(=O)N2CCC([C@H]3c4ncc(Br)cc4CCc4cc(Cl)cc(Br)c43)CC2)CC1 [Example 81] | 3.6 nM | – | – | IC50 (COS Cell; [5]): 30 nM; IC50 (Human tumor cells; [6]): 480 nM |
| CC(C)(C)OC(=O)NCCCC(=O)N1CCC(CC(=O)N2CCC([C@H]3c4ncc(Br)cc4CCc4cc(Cl)cc(Br)c43)CC2)CC1 [Example 89.0-B] | 8.7 nM | 550 nM | > 500 nM | – |
| COC(=O)C(=O)N1CCC(CC(=O)N2CCC([C@H]3c4ncc(Br)cc4CCc4cc(Cl)cc(Br)c43)CC2)CC1 [Example 104.0-B] | – | 40 nM | > 500 nM | IC50 ([1]; H-ras, read-out: FPT IC50 (H-ras)): 4.6 nM |
